Test system: MV-4-11 cells
Assay: Gene expression microarray analysis (Affymetrix PrimeView) and GSEA
Type: cell-based, human
Set-up: RFU PODN (11730768_x_at) / Fold change /veh PODN (11730768_x_at) / RFU LINC00158 (11744669_a_at) / Fold change /veh LINC00158 (11744669_a_at) / RFU DUSP10 (11751237_a_at) / Fold change /veh DUSP10 (11751237_a_at) / RFU ID3 (11757404_x_at) / Fold change /veh ID3 (11757404_x_at) / RFU PLEKHG5 (11737974_s_at) / Fold change /veh PLEKHG5 (11737974_s_at) / RFU LRRC4B (11730491_at) / Fold change /veh LRRC4B (11730491_at) / RFU GIMAP4 (11747438_a_at) / Fold change /veh GIMAP4 (11747438_a_at) / RFU KRT8 (11758183_x_at) / Fold change /veh KRT8 (11758183_x_at) / RFU CNN1 (11734310_a_at) / Fold change /veh CNN1 (11734310_a_at) / RFU VPS37D (11726825_at) / Fold change /veh VPS37D (11726825_at) / RFU C10orf10 (11716522_x_at) / Fold change /veh C10orf10 (11716522_x_at) / RFU KIR2DL2 /// KIR2DL4 /// KIR2DL5A /// KIR2DL5B /// KIR2DS1 /// KIR2DS2 /// KIR2DS3 /// KIR2DS4 /// KIR3DL3 /// KIR3DL3 /// KIR3DS1 (11738374_at) / Fold change /veh KIR2DL2 /// KIR2DL4 /// KIR2DL5A /// KIR2DL5B /// KIR2DS1 /// KIR2DS2 /// KIR2DS3 /// KIR2DS4 /// KIR3DL3 /// KIR3DL3 /// KIR3DS1 (11738374_at) / RFU C1QL1 (11718748_at) / Fold change /veh C1QL1 (11718748_at) / RFU TMPRSS4 (11747572_a_at) / Fold change /veh TMPRSS4 (11747572_a_at) / RFU HAMP (11756126_x_at) / Fold change /veh HAMP (11756126_x_at) / RFU RNFT2 (11725882_a_at) / Fold change /veh RNFT2 (11725882_a_at) / RFU NR4A2 (11747474_a_at) / Fold change /veh NR4A2 (11747474_a_at) / RFU ABCC12 (11746883_a_at) / Fold change /veh ABCC12 (11746883_a_at) / RFU TMEM136 (11760407_x_at) / Fold change /veh TMEM136 (11760407_x_at) / RFU CLDN22 /// WWC2 (11732394_at) / Fold change /veh CLDN22 /// WWC2 (11732394_at) / RFU HLA-DPB1 (11760878_x_at) / Fold change /veh HLA-DPB1 (11760878_x_at) / RFU SPINT1 (11716480_a_at) / Fold change /veh SPINT1 (11716480_a_at) / RFU GAP43 (11754022_s_at) / Fold change /veh GAP43 (11754022_s_at) / RFU A4GNT (11735810_at) / Fold change /veh A4GNT (11735810_at) / RFU PRB3 (11715151_x_at) / Fold change /veh PRB3 (11715151_x_at) / RFU TUBB4B (11761932_at) / Fold change /veh TUBB4B (11761932_at) / RFU CAPN14 (11732068_a_at) / Fold change /veh CAPN14 (11732068_a_at) / RFU TMCC2 (11721928_a_at) / Fold change /veh TMCC2 (11721928_a_at) / RFU IRGQ (11745062_a_at) / Fold change /veh IRGQ (11745062_a_at) / RFU FAM174B (11720279_a_at) / Fold change /veh FAM174B (11720279_a_at) / RFU TMPRSS4 (11748680_a_at) / Fold change /veh TMPRSS4 (11748680_a_at) / RFU FAM212B (11763350_a_at) / Fold change /veh FAM212B (11763350_a_at) / RFU PLEKHG5 (11743358_a_at) / Fold change /veh PLEKHG5 (11743358_a_at) / RFU ZSCAN30 (11745921_a_at) / Fold change /veh ZSCAN30 (11745921_a_at) / RFU CMKLR1 (11741424_a_at) / Fold change /veh CMKLR1 (11741424_a_at) / RFU LOC101060620 /// MAPK8IP1 (11723275_at) / Fold change /veh LOC101060620 /// MAPK8IP1 (11723275_at) / RFU SPTSSB (11747773_x_at) / Fold change /veh SPTSSB (11747773_x_at) / RFU PRSS12 (11739890_at) / Fold change /veh PRSS12 (11739890_at) / RFU BIN1 (11741810_x_at) / Fold change /veh BIN1 (11741810_x_at) / RFU WNT11 (11732464_a_at) / Fold change /veh WNT11 (11732464_a_at) / RFU C10orf10 (11716521_a_at) / Fold change /veh C10orf10 (11716521_a_at) / RFU C5orf56 (11738089_at) / Fold change /veh C5orf56 (11738089_at) / RFU CYB561 (11721691_x_at) / Fold change /veh CYB561 (11721691_x_at) / RFU ANKRD19P (11752326_a_at) / Fold change /veh ANKRD19P (11752326_a_at) / RFU OR2T12 /// OR2T33 /// OR2T8 (11738714_s_at) / Fold change /veh OR2T12 /// OR2T33 /// OR2T8 (11738714_s_at) / RFU VCAN (11748164_a_at) / Fold change /veh VCAN (11748164_a_at) / RFU JSRP1 (11732532_at) / Fold change /veh JSRP1 (11732532_at) / RFU KRTAP10-11 (11738290_x_at) / Fold change /veh KRTAP10-11 (11738290_x_at) / RFU MYO3A (11730013_a_at) / Fold change /veh MYO3A (11730013_a_at) / RFU EBF3 (11725865_a_at) / Fold change /veh EBF3 (11725865_a_at) / RFU CAMK2N1 (11719241_x_at) / Fold change /veh CAMK2N1 (11719241_x_at) / RFU C5orf56 (11738088_a_at) / Fold change /veh C5orf56 (11738088_a_at) / RFU OLFML3 (11715873_a_at) / Fold change /veh OLFML3 (11715873_a_at) / RFU LOC100653217 /// NTM (11731650_a_at) / Fold change /veh LOC100653217 /// NTM (11731650_a_at) / RFU MAPK11 (11762145_a_at) / Fold change /veh MAPK11 (11762145_a_at) / RFU FIZ1 (11724087_x_at) / Fold change /veh FIZ1 (11724087_x_at) / RFU OASL (11726364_x_at) / Fold change /veh OASL (11726364_x_at) / RFU SOX15 (11748057_x_at) / Fold change /veh SOX15 (11748057_x_at) / RFU CD79A (11719716_a_at) / Fold change /veh CD79A (11719716_a_at) / RFU HIST1H1D (11736915_at) / Fold change /veh HIST1H1D (11736915_at) / RFU CASKIN2 (11723855_a_at) / Fold change /veh CASKIN2 (11723855_a_at) / RFU LOC730098 (11760151_x_at) / Fold change /veh LOC730098 (11760151_x_at) / RFU OR4N2 (11742367_at) / Fold change /veh OR4N2 (11742367_at) / RFU PRRT2 (11749266_a_at) / Fold change /veh PRRT2 (11749266_a_at) / RFU SNX32 (11753110_a_at) / Fold change /veh SNX32 (11753110_a_at) / RFU CDHR5 (11726645_a_at) / Fold change /veh CDHR5 (11726645_a_at) / RFU RCAN1 (11760418_a_at) / Fold change /veh RCAN1 (11760418_a_at) / RFU FAM167A (11723789_a_at) / Fold change /veh FAM167A (11723789_a_at) / RFU FAM26E (11764081_at) / Fold change /veh FAM26E (11764081_at) / RFU ISYNA1 (11749810_s_at) / Fold change /veh ISYNA1 (11749810_s_at) / RFU ACY1 (11761880_at) / Fold change /veh ACY1 (11761880_at) / RFU 11764098_at / Fold change /veh 11764098_at / RFU SAMD14 (11745864_x_at) / Fold change /veh SAMD14 (11745864_x_at) / RFU NPB (11741838_a_at) / Fold change /veh NPB (11741838_a_at) / RFU TMPRSS6 (11731388_a_at) / Fold change /veh TMPRSS6 (11731388_a_at) / RFU KRTAP10-2 (11738614_at) / Fold change /veh KRTAP10-2 (11738614_at) / RFU ARHGAP8 /// PRR5-ARHGAP8 (11727945_x_at) / Fold change /veh ARHGAP8 /// PRR5-ARHGAP8 (11727945_x_at) / RFU KRTAP5-7 /// NADSYN1 (11734609_at) / Fold change /veh KRTAP5-7 /// NADSYN1 (11734609_at) / RFU RASL12 (11751679_a_at) / Fold change /veh RASL12 (11751679_a_at) / RFU CDKN2B (11736163_a_at) / Fold change /veh CDKN2B (11736163_a_at) / RFU PRF1 (11729649_at) / Fold change /veh PRF1 (11729649_at) / RFU, ZNF638 /// ZNF638-IT1 / Fold change vs veh, ZNF638 /// ZNF638-IT1 / RFU, PANK3 / Fold change vs veh, PANK3 / RFU, SH3YL1 / Fold change vs veh, SH3YL1 / RFU, ZEB2 / Fold change vs veh, ZEB2 / RFU, NRIP1 / Fold change vs veh, NRIP1 / RFU, PTTG1IP / Fold change vs veh, PTTG1IP / RFU, CAPN2 / Fold change vs veh, CAPN2 / RFU, MED14 / Fold change vs veh, MED14 / RFU, SNORA58 / Fold change vs veh, SNORA58 / RFU, C1orf63 / Fold change vs veh, C1orf63 / RFU, LRRFIP1 / Fold change vs veh, LRRFIP1 / RFU, NDUFAF7 / Fold change vs veh, NDUFAF7 / RFU, SLC12A2 / Fold change vs veh, SLC12A2 / RFU, IBTK / Fold change vs veh, IBTK / RFU, ESF1 / Fold change vs veh, ESF1 / Fold change vs veh, TMEM50B / RFU, TAOK1 / Fold change vs veh, TAOK1 / RFU, ACBD3 / Fold change vs veh, ACBD3 / RFU, TMA16 / Fold change vs veh, TMA16 / RFU, RWDD3 / Fold change vs veh, RWDD3 / RFU, BCAT1 / Fold change vs veh, BCAT1 / RFU, EDEM3 / Fold change vs veh, EDEM3 / RFU, TMEM33 / Fold change vs veh, TMEM33 / RFU, WDR75 / Fold change vs veh, WDR75 / RFU, AHCTF1 / Fold change vs veh, AHCTF1 / RFU, TFRC / Fold change vs veh, TFRC / RFU, ZDHHC17 / Fold change vs veh, ZDHHC17 / RFU, NOM1 / Fold change vs veh, NOM1 / RFU, ARL8B / Fold change vs veh, ARL8B / RFU, ZBTB11 / Fold change vs veh, ZBTB11 / RFU, TAMM41 / Fold change vs veh, TAMM41 / RFU, KIAA1704 /// LOC100996395 / Fold change vs veh, KIAA1704 /// LOC100996395 / RFU, ING1 / Fold change vs veh, ING1 / RFU, TRMT61B / Fold change vs veh, TRMT61B / RFU, FUBP3 / Fold change vs veh, FUBP3 / RFU, TP53 / Fold change vs veh, TP53 / RFU, TNKS2 / Fold change vs veh, TNKS2 / RFU, ZFP14 / Fold change vs veh, ZFP14 / RFU, ACTR2 / Fold change vs veh, ACTR2 / RFU, PPP3R1 / Fold change vs veh, PPP3R1 / RFU, PIK3R1 / Fold change vs veh, PIK3R1 / RFU, HNRNPA1 / Fold change vs veh, HNRNPA1 / RFU, RNF170 / Fold change vs veh, RNF170 / RFU, ZNF28 / Fold change vs veh, ZNF28 / RFU, RNGTT / Fold change vs veh, RNGTT / RFU, OGT / Fold change vs veh, OGT / RFU, BRD1 / Fold change vs veh, BRD1 / RFU, MARS / Fold change vs veh, MARS / RFU, ZNF655 / Fold change vs veh, ZNF655 / RFU, FAHD1 / Fold change vs veh, FAHD1 / RFU, BDP1 / Fold change vs veh, BDP1 / RFU, LRRCC1 / Fold change vs veh, LRRCC1 / RFU, ARID1A / Fold change vs veh, ARID1A / RFU, ZNF146 / Fold change vs veh, ZNF146 / RFU, ZNF330 / Fold change vs veh, ZNF330 / RFU, GPN3 / Fold change vs veh, GPN3 / RFU, C9orf123 / Fold change vs veh, C9orf123 / RFU, N4BP2L2 / Fold change vs veh, N4BP2L2 / RFU, ARFIP1 / Fold change vs veh, ARFIP1 / RFU, FAM179B / Fold change vs veh, FAM179B / RFU, BCL10 / Fold change vs veh, BCL10 / RFU, UHRF1BP1L / Fold change vs veh, UHRF1BP1L / RFU, BET1 / Fold change vs veh, BET1 / RFU, CNOT2 / Fold change vs veh, CNOT2 / RFU, ZNF268 / Fold change vs veh, ZNF268 / Fold change vs veh, ZNF507 / RFU, DGCR2 / Fold change vs veh, DGCR2 / RFU, WDSUB1 / Fold change vs veh, WDSUB1 / Fold change vs veh, HSP90B1 /// MIR3652 / RFU, ADSS / Fold change vs veh, ADSS / RFU, GK / Fold change vs veh, GK / RFU, ZNF148 / Fold change vs veh, ZNF148 / RFU, TAF9 / Fold change vs veh, TAF9 / RFU, SLC1A5 / Fold change vs veh, SLC1A5 / RFU, SLMO2 / Fold change vs veh, SLMO2 / RFU, ABCC4 / Fold change vs veh, ABCC4 / RFU, LOC101060439 /// RAP1B / Fold change vs veh, LOC101060439 /// RAP1B / RFU, RFX7 / Fold change vs veh, RFX7 / RFU, GTPBP10 / Fold change vs veh, GTPBP10 / RFU, CNEP1R1 / Fold change vs veh, CNEP1R1 / RFU, BIVM-ERCC5 /// ERCC5 / Fold change vs veh, BIVM-ERCC5 /// ERCC5 / RFU, ILF3 / Fold change vs veh, ILF3 / RFU 11762660_at / Fold change /veh 11762660_at / RFU VCAN (11757783_s_at) / Fold change /veh VCAN (11757783_s_at) / RFU DDX43 (11728927_at) / Fold change /veh DDX43 (11728927_at) / RFU KRT8 (11758188_x_at) / Fold change /veh KRT8 (11758188_x_at) / RFU NKD1 (11759106_at) / Fold change /veh NKD1 (11759106_at) / RFU SRD5A1 (11742802_a_at) / Fold change /veh SRD5A1 (11742802_a_at) / RFU TPSAB1 /// TPSB2 (11721975_s_at) / Fold change /veh TPSAB1 /// TPSB2 (11721975_s_at) / RFU GSTM3 (11746129_a_at) / Fold change /veh GSTM3 (11746129_a_at) / RFU IL23R (11737362_x_at) / Fold change /veh IL23R (11737362_x_at) / RFU TMEM51 (11727254_a_at) / Fold change /veh TMEM51 (11727254_a_at) / RFU PIWIL2 (11732686_x_at) / Fold change /veh PIWIL2 (11732686_x_at) / RFU ORM1 (11744905_x_at) / Fold change /veh ORM1 (11744905_x_at) / RFU CCDC152 (11743942_at) / Fold change /veh CCDC152 (11743942_at) / RFU ECM1 (11717891_a_at) / Fold change /veh ECM1 (11717891_a_at) / RFU IL23R (11748794_a_at) / Fold change /veh IL23R (11748794_a_at) / RFU TNFAIP8L3 (11732012_x_at) / Fold change /veh TNFAIP8L3 (11732012_x_at) / RFU MBOAT4 (11741988_at) / Fold change /veh MBOAT4 (11741988_at) / RFU 11764193_at / Fold change /veh 11764193_at / RFU TMEM53 (11763286_at) / Fold change /veh TMEM53 (11763286_at) / RFU MAGEB2 (11727129_at) / Fold change /veh MAGEB2 (11727129_at) / RFU TMEM200A (11744735_a_at) / Fold change /veh TMEM200A (11744735_a_at) / RFU CCDC152 (11751479_a_at) / Fold change /veh CCDC152 (11751479_a_at) / RFU FAM211A (11726209_a_at) / Fold change /veh FAM211A (11726209_a_at) / RFU RGS16 (11746705_a_at) / Fold change /veh RGS16 (11746705_a_at) / RFU VCAN (11755009_s_at) / Fold change /veh VCAN (11755009_s_at) / RFU RHOB (11743442_s_at) / Fold change /veh RHOB (11743442_s_at) / RFU RGS16 (11720943_a_at) / Fold change /veh RGS16 (11720943_a_at) / RFU RGS16 (11720944_at) / Fold change /veh RGS16 (11720944_at) / RFU, VPS4B / Fold change vs veh, VPS4B / RFU, CREB1 / Fold change vs veh, CREB1 / RFU, DNAJC13 / Fold change vs veh, DNAJC13 / RFU, GNAQ / Fold change vs veh, GNAQ / RFU, CDK5R1 / Fold change vs veh, CDK5R1 / RFU, ZRANB3 / Fold change vs veh, ZRANB3 / RFU, CUL4A / Fold change vs veh, CUL4A / RFU, CCNY / Fold change vs veh, CCNY / RFU, UFL1 / Fold change vs veh, UFL1 / RFU, COG3 / Fold change vs veh, COG3 / RFU, DIAPH2 / Fold change vs veh, DIAPH2 / RFU, SKA2 / Fold change vs veh, SKA2 / RFU, AFF3 / Fold change vs veh, AFF3 / RFU, LMF1 / Fold change vs veh, LMF1 / RFU, IPO11 / Fold change vs veh, IPO11 / RFU, DFFB / Fold change vs veh, DFFB / RFU, FOXP1 / Fold change vs veh, FOXP1 / RFU, CARD8 / Fold change vs veh, CARD8 / RFU, STRN3 / Fold change vs veh, STRN3 / RFU, ADK / Fold change vs veh, ADK / RFU, RASSF2 / Fold change vs veh, RASSF2 / RFU, WIPF1 / Fold change vs veh, WIPF1 / RFU, LARP1B / Fold change vs veh, LARP1B / RFU, RASA1 / Fold change vs veh, RASA1 / RFU, RB1 / Fold change vs veh, RB1 / RFU, PPFIA1 / Fold change vs veh, PPFIA1 / RFU, MAT2A / Fold change vs veh, MAT2A / RFU, CCT5 / Fold change vs veh, CCT5 / RFU, WDR92 / Fold change vs veh, WDR92 / RFU, CUX1 / Fold change vs veh, CUX1 / RFU, TTC7A / Fold change vs veh, TTC7A / RFU, TMEM135 / Fold change vs veh, TMEM135 / RFU, DEPTOR / Fold change vs veh, DEPTOR / RFU, CPM / Fold change vs veh, CPM / RFU, DNAJB6 / Fold change vs veh, DNAJB6 / RFU, CACNA2D3 / Fold change vs veh, CACNA2D3 / RFU, DTX4 / Fold change vs veh, DTX4 / RFU, TFCP2 / Fold change vs veh, TFCP2 / RFU, GMCL1 /// GMCL1P1 / Fold change vs veh, GMCL1 /// GMCL1P1 / RFU, AEBP2 / Fold change vs veh, AEBP2 / RFU, SNHG1 /// SNORD22 /// SNORD25 /// SNORD26 /// SNORD27 /// SNORD28 /// SNORD29 /// SNORD31 / Fold change vs veh, SNHG1 /// SNORD22 /// SNORD25 /// SNORD26 /// SNORD27 /// SNORD28 /// SNORD29 /// SNORD31 / Fold change (Aza/veh), C12orf56 (ProbeSet 11735607_a_at) / Fold change (ACY-1035/veh), C12orf56 (ProbeSet 11735607_a_at) / Fold change (Aza/veh), FGFR1OP (ProbeSet 11751329_s_at) / Fold change (ACY-1035/veh), FGFR1OP (ProbeSet 11751329_s_at) / Fold change (Aza/veh), VPS36 (ProbeSet 11739960_a_at) / Fold change (ACY-1035/veh), VPS36 (ProbeSet 11739960_a_at) / RFU SYPL1 (11715823_x_at) / Fold change /veh SYPL1 (11715823_x_at) / RFU IGFBP7 (11715501_s_at) / Fold change /veh IGFBP7 (11715501_s_at) / RFU REEP3 (11722064_at) / Fold change /veh REEP3 (11722064_at) / RFU IGLL1 (11728026_x_at) / Fold change /veh IGLL1 (11728026_x_at): dose or concentration left out as unconfirmed
Details: ProbeSet 11721521_at; LIST B

Nc1ncn([C@@H]2O[C@H](CO)[C@@H](O)[C@H]2O)c(=O)n1 [azacitidine] was tested, and the “RFU, ZDHHC17” value was 48.06 RFU.

Source: paper PMC5218480 (PLoS ONE, 2017)
